± gives the expanded uncertainty stated by the source.
Conditions: Liquid

CN1CCOCC1 [N-methylmorpholine]
mass density (293.15 K): 918.74 ± 1.4 kg/m3 | viscosity (293.15 K): 1.028 ± 0.1 mPa·s | mass density (303.15 K): 909.54 ± 1.5 kg/m3 | viscosity (303.15 K): 0.959 ± 0.096 mPa·s | mass density (313.15 K): 902.37 ± 1.5 kg/m3 | viscosity (313.15 K): 0.858 ± 0.087 mPa·s | mass density (323.15 K): 893.32 ± 1.5 kg/m3 | viscosity (323.15 K): 0.754 ± 0.078 mPa·s | mass density (333.15 K): 884.36 ± 1.6 kg/m3 | viscosity (333.15 K): 0.626 ± 0.067 mPa·s | mass density (343.15 K): 876.52 ± 1.6 kg/m3 | viscosity (343.15 K): 0.498 ± 0.056 mPa·s
